Data taken from patent publication US20110034714A1, “METAL COMPLEX COMPOUND, CANCER THERAPEUTIC AGENT COMPOSITION CONTAINING THE METAL COMPLEX COMPOUND AS AN ACTIVE INGREDIENT, AND INTERMEDIATE FOR THE METAL COMPLEX COMPOUND” (priority 2007, published 2011).

How the values were obtained:
Format in all cases: in vivo
[1] = BUN (blood urea nitrogen) as an index of nephrotoxicity in tumor-bearing nude mice; settings: 4 days after completion of the administration; SC-6-JCK and Lu-24 tumor-bearing nude mice
Procedure: (§1) Using nude mice transplanted with human tumors SC-6-JCK and Lu-24, the anti-tumor action of the substance having the structure below (Compound 44), among the compounds of the present invention, was investigated. Each of SC-6-JCK and Lu-24 was subcutaneously implanted in nude mice, and, when the tumor volumes reached to 100 to 300 mm^3, 7.0 mg and 10.0 mg/kg of the present test substance were respectively administered to the SC-6-JCK tumor-bearing mice, and 10.0 mg and 12.0 mg/kg of the present test substance were respectively administered to the Lu-24 tumor-bearing mice, from the tail vein 3 times intermittently at 4 days' intervals.

human tumor SC-6-JCK = test: Anti-tumor action in nude mice transplanted with human tumor SC-6-JCK; settings: SC-6-JCK tumor-bearing nude mice, 7.0 mg and 10.0 mg/kg, tail vein, 3 times at 4 days' intervals
Procedure: as §1

human tumor Lu-24 = test: Anti-tumor action in nude mice transplanted with human tumor Lu-24; settings: Lu-24 tumor-bearing nude mice, 10.0 mg and 12.0 mg/kg, tail vein, 3 times at 4 days' intervals
Procedure: as §1

CCOP1(=O)CP(=O)(OCC)[O][Pt]([NH2])([NH2])[O]1 (stereo not drawn) [Compound 44]
BUN (blood urea nitrogen) as an index of nephrotoxicity [1]: an increase of the BUN value was not observed | suppression of the tumor volume (human tumor SC-6-JCK): suppression of the tumor volume was observed in a dose-dependent manner | suppression of the tumor volume (human tumor Lu-24): suppression of the tumor volume was observed in a dose-dependent manner
